Patent US20250326771A1, “PIPERAZINE DERIVATIVES USEFUL IN HIV THERAPY” (VIIV HEALTHCARE COMPANY, priority 2022, published 2025)
pIC50: −log10 of the molar value. Read-outs that look alike come from different tables or passages of the source.

How the values were obtained:
cIAP2-BIR3 = cIAP2-BIR3 (Homo sapiens (Human), UniProt Q13489); test: BIR binding assay (FRET competition), cIAP2 BIR3; details: for cIAP2 BIR3 vs BIR2 separation window: fold separation (FS) for cIAP2
XIAP-BIR2 = XIAP-BIR2 (Homo sapiens (Human), UniProt P98170); test: BIR binding assay (FRET competition), XIAP BIR2; details: for IC50: read-out: XIAP BIR2 (pIC50) (converted)
Summary of the method: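 Compounds in a 15-point, 3-fold series competed with an AlexaFluor647 SMAC peptide (AVPIAQKSE, 200 nM) for 200 nM His-tagged XIAP-BIR2 over 60 min in pH 7.4 HEPES/CHAPS/DTT buffer. Eu-W1024 (2 nM) was then added for 30 min. IC50 and pIC50 were derived from the 615 nm/665 nm emission ratio by variable-slope fit.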

XIAP-BIR3 = XIAP-BIR3 (Homo sapiens (Human), UniProt P98170); test: BIR binding assay (FRET competition), XIAP BIR3; details: for XIAP BIR3 vs BIR2 separation window: fold separation (FS) for XIAP
Summary of the method: (§1)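 Each domain is run separately at its own level: 50 nM cIAP1-BIR3, 100 nM XIAP-BIR3, 325 nM for cIAP1-BIR2 or cIAP2-BIR2. Probe is a 200 nM fluorescent SMAC peptide, and the value is IC50 from FRET competition.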

[1] = system: Jurkat HIV-luciferase clones; test: Jurkat latency reversal assay; assay type: cell-based; details: Homo sapiens, 48 h; Jurkat latency reversal assay potency; read-out: Jurkat pEC50 (converted)
Summary of the method: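 A 1:1:1 mix of three Jurkat clones (C16, 115, N6) carrying integrated luciferase-expressing HIV proviruses, 5,000 cells/well, was exposed to 3-fold, 14-point compound titrations from 10 μM at 0.5% DMSO for 48 h at 37° C. Steady-Glo luminescence was fitted by four-parameter logistic regression to give EC50 and maximal percent activation relative to vehicle.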

cIAP2-BIR2 = cIAP2-BIR2 (Homo sapiens (Human), UniProt Q13489); test: BIR binding assay (FRET competition), cIAP2 BIR2
Summary of the method: as §1

cIAP1-BIR2 = cIAP1-BIR2 (Homo sapiens (Human), UniProt Q13490); test: BIR binding assay (FRET competition), cIAP1 BIR2
Summary of the method: as §1

cIAP1-BIR3 = cIAP1-BIR3 (Homo sapiens (Human), UniProt Q13490); test: BIR binding assay (FRET competition), cIAP1 BIR3; details: for cIAP1 BIR3 vs BIR2 separation window: fold separation (FS) for cIAP1
Summary of the method: as §1

Sequence of cIAP2-BIR2 (Q13489 158-242): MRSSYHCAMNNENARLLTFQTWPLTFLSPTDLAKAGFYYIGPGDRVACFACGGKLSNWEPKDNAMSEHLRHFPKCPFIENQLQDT
Sequence of cIAP2-BIR3 (Q13489 238-349): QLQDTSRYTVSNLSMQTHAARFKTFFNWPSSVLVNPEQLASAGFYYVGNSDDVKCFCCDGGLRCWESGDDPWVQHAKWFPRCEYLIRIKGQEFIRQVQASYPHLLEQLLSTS
Sequence of XIAP-BIR2 (P98170 124-240): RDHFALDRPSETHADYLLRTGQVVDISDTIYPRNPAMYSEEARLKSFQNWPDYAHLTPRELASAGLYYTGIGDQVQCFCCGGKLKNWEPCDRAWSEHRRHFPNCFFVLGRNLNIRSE
Sequence of cIAP1-BIR3 (Q13490 253-363): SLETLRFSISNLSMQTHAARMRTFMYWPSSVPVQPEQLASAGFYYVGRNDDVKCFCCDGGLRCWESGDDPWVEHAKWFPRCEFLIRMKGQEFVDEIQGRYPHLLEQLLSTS
Sequence of cIAP1-BIR2 (Q13490 173-257): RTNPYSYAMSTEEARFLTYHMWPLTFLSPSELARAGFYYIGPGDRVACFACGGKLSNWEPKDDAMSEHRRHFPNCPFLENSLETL
Sequence of XIAP-BIR3 (P98170 241-356): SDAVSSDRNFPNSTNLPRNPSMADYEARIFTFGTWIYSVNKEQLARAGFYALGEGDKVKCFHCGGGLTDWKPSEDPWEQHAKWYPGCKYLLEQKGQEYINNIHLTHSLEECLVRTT

Row | SMILES | pIC50 (cIAP2-BIR3) | cIAP2 BIR3 vs BIR2 separation window (cIAP2-BIR3) | IC50 (XIAP-BIR2; FRET competition binding) [nM] | pIC50 (XIAP-BIR3) | XIAP BIR3 vs BIR2 separation window (XIAP-BIR3) | EC50 [1] [nM] | pIC50 (cIAP2-BIR2) | pIC50 (cIAP1-BIR2) | pIC50 (cIAP1-BIR3) | cIAP1 BIR3 vs BIR2 separation window (cIAP1-BIR3) | IC50 (XIAP-BIR2; FRET competition) [nM] | XIAP BIR2 (pIC50) (XIAP-BIR2; FRET competition binding)
1 | C[C@@H]1CN(CC(=O)N2CC(C)(C)c3[nH]c(=O)c(Cc4ccc(F)cc4)cc32)[C@@H](CN2CCC(CCNC(=O)c3ccc(C(=O)NCCC4CCN(C[C@H]5CN[C@H](C)CN5CC(=O)N5CC(C)(C)c6[nH]c(=O)c(Cc7ccc(F)cc7)cc65)CC4)cc3)CC2)CN1 [Example 103, N^1,N^4-bis(2-(1-(((2R,5R)-1-(2-(6-(4-fluorobenzyl)-3,3-dimethyl-5-oxo-2,3,4,5-tetrahydro-1H-pyrrolo[3,2-b]pyridin-1-yl)-2-oxoethyl)-5-methylpiperazin-2-yl)methyl)piperidin-4-yl)ethyl)terephthalamide] | 7.80 to 8.10 | +++ (10,000>FS>1,000) | 10000 to 51300 | 7.80 to 8.10 | ++++ (FS>10,000) | 63.1 to 316 | 5.00 to 5.50 | 5.00 to 5.50 | 7.80 to 8.10 | +++ (10,000>FS>1,000) |  | 
2 | Cc1ccc(Oc2cc3c([nH]c2=O)C(C)(C)CN3C(=O)CN2C[C@@H](C)NC[C@@H]2CN2CCO[C@H](C(=O)NCc3ccc(CNC(=O)[C@@H]4CN(C[C@H]5CN[C@H](C)CN5CC(=O)N5CC(C)(C)c6[nH]c(=O)c(Oc7ccc(C)cc7)cc65)CCO4)cc3)C2)cc1 [Compound 184, (2S,2′S)-N,N′-(1,4-phenylenebis(methylene)) bis(4-(((2R,5R)-1-(2-(3,3-dimethyl-5-oxo-6-(p-tolyloxy)-2,3,4,5-tetrahydro-1H-pyrrolo[3,2-b]pyridin-1-yl)-2-oxoethyl)-5-methylpiperazin-2-yl)methyl)morpholine-2-carboxamide)] | 8.10 to 8.86 | ++++ (FS>10,000) |  | 6.30 to 7.50 | +++ (10,000>FS>1,000) | 316 to 3310 | 5.00 to 5.50 | 5.00 to 5.50 | 7.80 to 8.10 | +++ (10,000>FS>1,000) | 10000 to 51300 | 
3 | C[C@@H]1CN(CC(=O)N2CC(C)(C)c3c2cc(Cc2ccc(F)cc2)c(=O)n3C)[C@@H](CN2CCO[C@H](COc3ccc(Cc4ccc(OC[C@@H]5CN(C[C@H]6CN[C@H](C)CN6CC(=O)N6CC(C)(C)c7c6cc(Cc6ccc(F)cc6)c(=O)n7C)CCO5)cc4)cc3)C2)CN1 [Example 115, 1,1′-(2,2′-((3R,3′R,6R,6′R)-(((2S,2'S)-(((methylenebis(4,1-phenylene))bis(oxy))bis(methylene))bis(morpholine-2,4-diyl))bis(methylene))bis(3-methylpiperazine-6,1-diyl))bis(acetyl))bis(6-(4-fluorobenzyl)-3,3,4-trimethyl-1,2,3,4-tetrahydro-5H-pyrrolo[3,2-b]pyridin-5-one)] | 6.30 to 7.50 | +++ (10,000>FS>1,000) |  | 6.30 to 7.50 | ++ (1,000>FS>100) | 63.1 to 316 | 4.29 to 5.00 | 5.00 to 5.50 | 6.30 to 7.50 | +++ (10,000>FS>1,000) |  | ++ (5.00<pIC50<=5.50)
4 | C[C@@H]1CN(CC(=O)N2CC(C)(C)c3[nH]c(=O)c(Cc4ccc(F)cc4)cc32)[C@@H](CN2CCN(CCc3cn(CCCC(=O)N4CCN(C[C@H]5CN[C@H](C)CN5CC(=O)N5CC(C)(C)c6[nH]c(=O)c(Cc7ccc(F)cc7)cc65)[C@H](C)C4)nn3)C[C@H]2C)CN1 [Compound 157] | 7.80 to 8.10 | ++ (1,000>FS>100) |  | 7.50 to 7.80 | ++++ (FS>10,000) | 63.1 to 316 | 6.00 to 7.65 | 5.50 to 6.00 | 7.80 to 8.10 | ++ (1,000>FS>100) | 10000 to 51300 | 
5 | C[C@@H]1CN(CC(=O)N2CC(C)(C)c3[nH]c(=O)c(Cc4ccc(F)cc4)cc32)[C@@H](CN2CCO[C@H](C(=O)NCCN3CCN(C(=O)[C@@H]4CN(C[C@H]5CN[C@H](C)CN5CC(=O)N5CC(C)(C)c6[nH]c(=O)c(Cc7ccc(F)cc7)cc65)CCO4)CC3)C2)CN1 [Compound 134, (S)-4-(((2R,5R)-1-(2-(6-(4-fluorobenzyl)-3,3-dimethyl-5-oxo-2,3,4,5-tetrahydro-1H-pyrrolo[3,2-b]pyridin-1-yl)-2-oxoethyl)-5-methylpiperazin-2-yl)methyl)-N-(2-(4-((S)-4-(((2R,5R)-1-(2-(6-(4-fluorobenzyl)-3,3-dimethyl-5-oxo-2,3,4,5-tetrahydro-1H-pyrrolo[3,2-b]pyridin-1-yl)-2-oxoethyl)-5-methylpiperazin-2-yl)methyl)morpholine-2-carbonyl)piperazin-1-yl)ethyl)morpholine-2-carboxamide] | 7.80 to 8.10 | +++ (10,000>FS>1,000) |  | 6.30 to 7.50 | +++ (10,000>FS>1,000) | 12.6 to 63.1 | 5.50 to 6.00 | 5.50 to 6.00 | 7.50 to 7.80 | ++ (1,000>FS>100) | 10000 to 51300 | 
6 | C[C@@H]1CN(CC(=O)N2CC(C)(C)c3[nH]c(=O)c(Cc4ccc(F)cc4)cc32)[C@@H](CN2CCC(COc3cccc(OCC4CCN(C[C@H]5CN[C@H](C)CN5CC(=O)N5CC(C)(C)c6[nH]c(=O)c(Cc7ccc(F)cc7)cc65)CC4)c3)CC2)CN1 [Example 107, 1,1′-(2,2′-((3R,3′R,6R,6′R)-((((1,3-phenylenebis(oxy))bis(methylene))bis(piperidine-4,1-diyl))bis(methylene))bis(3-methylpiperazine-6,1-diyl))bis(acetyl))bis(6-(4-fluorobenzyl)-3,3-dimethyl-1,2,3,4-tetrahydro-5H-pyrrolo[3,2-b]pyridin-5-one)] | 8.10 to 8.86 | ++++ (FS>10,000) | 10000 to 51300 | 7.80 to 8.10 | ++++ (FS>10,000) | 12.6 to 63.1 | 4.29 to 5.00 | 5.50 to 6.00 | 7.80 to 8.10 | +++ (10,000>FS>1,000) |  | 
7 | C[C@@H]1CN(CC(=O)N2CC(C)(C)c3[nH]c(=O)c(Cc4ccc(F)cc4)cc32)[C@@H](CN2CCN(Cc3cn(CCC(=O)N4CCN(C[C@H]5CN[C@H](C)CN5CC(=O)N5CC(C)(C)c6[nH]c(=O)c(Cc7ccc(F)cc7)cc65)[C@H](C)C4)nn3)C[C@H]2C)CN1 [Compound 156] | 7.80 to 8.10 | +++ (10,000>FS>1,000) |  | 7.50 to 7.80 | ++++ (FS>10,000) | 63.1 to 316 | 5.50 to 6.00 | 5.50 to 6.00 | 7.50 to 7.80 | ++ (1,000>FS>100) | 10000 to 51300 | 
8 | C[C@@H]1CN(CC(=O)N2CC(C)(C)c3[nH]c(=O)c(Cc4ccc(F)cc4)cc32)[C@@H](CN2CCO[C@H](C(=O)N(C)CCCN(C)C(=O)[C@@H]3CN(C[C@H]4CN[C@H](C)CN4CC(=O)N4CC(C)(C)c5[nH]c(=O)c(Cc6ccc(F)cc6)cc54)CCO3)C2)CN1 [Example 130, (2S,2'S)-N,N′-(Propane-1,3-diyl)bis(4-(((2R,5R)-1-(2-(6-(4-fluorobenzyl)-3,3-dimethyl-5-oxo-2,3,4,5-tetrahydro-1H-pyrrolo[3,2-b]pyridin-1-yl)-2-oxoethyl)-5-methylpiperazin-2-yl)methyl)-N-methylmorpholine-2-carboxamide)] | 8.10 to 8.86 | +++ (10,000>FS>1,000) | 10000 to 51300 | 7.80 to 8.10 | ++++ (FS>10,000) | 12.6 to 63.1 | 5.50 to 6.00 | 5.50 to 6.00 | 8.10 to 8.86 | +++ (10,000>FS>1,000) |  | 
